Here are results for 15 compounds from patent US20260274832A1, “COMPOUNDS AND THEIR USE IN TREATING CANCER” (ASTRAZENECA AB, priority 2023, published 2026).

Assay [1] addresses T1, AR (AR-full length) in LNCaP cells (Homo sapiens, UniProt P10275, T878A).
T1 construct: the prostate cancer cell line LNCaP (expressing AR-full length); endogenous in cells; host or cells: LNCaP
The assay can be described thus: LNCaP Androgen Receptor Imaging Assay (immunofluorescence of endogenous nuclear AR). It is filed as cell-based. The following applies: 24 h incubation; for DC50: concentration giving 50% of maximum degradation of AR per curve fit, single experiment or average of two or more; for Dmax: LNCaP, maximum degradation observed, normalized as % of positive control (prior art AR PROTAC at 3 μM). The procedure, abridged: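 LNCaP cells (12,000/well) received a 12-point compound dose series (0.3% DMSO) for 24 h at 37° C., then were PFA-fixed and stained for AR (AR441) and nuclei (DRAQ5). Nuclear AR was quantified by imaging, normalized to a 3 μM AR PROTAC control; DC50 and Dmax came from Hill/bell curve fits.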

Assay [2] has as its target T2, AR (L702H) in LNCaP cells (Homo sapiens, UniProt P10275, L702H/T878A).
T2 construct: engineered to introduce the mutation L702H into the AR gene using CRISPR/Cas9; endogenous in cells; host or cells: LNCaP cells edited by CRISPR/Cas9 at the AR gene
The assay can be described thus: LNCaP Androgen Receptor L702H Imaging Assay (LNCaP cells engineered by CRISPR/Cas9). The following applies: LNCaP cells with AR L702H mutation, 24 h incubation; for DC50: concentration giving 50% of maximum degradation of AR (L702H) per curve fit; for Dmax: LNCaP, maximum degradation observed, normalized as % of positive control. The format is cell-based. The procedure, abridged:
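CRISPR-engineered LNCaP cells carrying AR L702H were treated 24 h at 37 °C with a 12-point compound dose response (0.3% DMSO), then fixed and immunostained for AR with DRAQ5 nuclear counterstain. Nuclear AR was quantified by imaging, normalized to positive control; DC50 and Dmax came from Hill or bell-shaped fits.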

T1 sequence (P10275 whole entry T878A): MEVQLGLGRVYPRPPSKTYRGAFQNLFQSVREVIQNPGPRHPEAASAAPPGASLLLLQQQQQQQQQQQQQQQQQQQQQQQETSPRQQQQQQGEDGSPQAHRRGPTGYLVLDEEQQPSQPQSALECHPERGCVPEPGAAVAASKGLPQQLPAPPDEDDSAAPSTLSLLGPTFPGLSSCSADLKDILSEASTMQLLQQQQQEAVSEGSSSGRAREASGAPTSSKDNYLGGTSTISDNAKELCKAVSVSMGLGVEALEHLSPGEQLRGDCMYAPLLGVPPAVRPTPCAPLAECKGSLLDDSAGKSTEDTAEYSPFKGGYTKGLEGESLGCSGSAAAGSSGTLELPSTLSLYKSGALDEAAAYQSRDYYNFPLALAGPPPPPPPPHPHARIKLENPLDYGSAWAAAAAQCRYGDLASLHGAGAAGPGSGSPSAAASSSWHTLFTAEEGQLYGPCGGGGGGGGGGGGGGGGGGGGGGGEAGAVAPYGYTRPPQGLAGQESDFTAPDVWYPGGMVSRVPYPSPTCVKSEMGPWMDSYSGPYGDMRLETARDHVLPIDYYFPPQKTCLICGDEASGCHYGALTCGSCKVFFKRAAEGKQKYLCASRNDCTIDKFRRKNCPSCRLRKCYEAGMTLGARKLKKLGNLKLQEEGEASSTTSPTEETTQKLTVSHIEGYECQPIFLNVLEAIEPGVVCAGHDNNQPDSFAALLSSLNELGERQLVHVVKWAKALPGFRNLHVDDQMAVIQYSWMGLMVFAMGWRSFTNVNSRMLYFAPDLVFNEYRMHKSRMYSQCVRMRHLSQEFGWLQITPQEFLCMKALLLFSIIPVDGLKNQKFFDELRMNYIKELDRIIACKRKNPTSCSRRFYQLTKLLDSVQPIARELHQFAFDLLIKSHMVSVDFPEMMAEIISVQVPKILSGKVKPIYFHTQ
T1 sequence (Q96SW2 whole entry partner): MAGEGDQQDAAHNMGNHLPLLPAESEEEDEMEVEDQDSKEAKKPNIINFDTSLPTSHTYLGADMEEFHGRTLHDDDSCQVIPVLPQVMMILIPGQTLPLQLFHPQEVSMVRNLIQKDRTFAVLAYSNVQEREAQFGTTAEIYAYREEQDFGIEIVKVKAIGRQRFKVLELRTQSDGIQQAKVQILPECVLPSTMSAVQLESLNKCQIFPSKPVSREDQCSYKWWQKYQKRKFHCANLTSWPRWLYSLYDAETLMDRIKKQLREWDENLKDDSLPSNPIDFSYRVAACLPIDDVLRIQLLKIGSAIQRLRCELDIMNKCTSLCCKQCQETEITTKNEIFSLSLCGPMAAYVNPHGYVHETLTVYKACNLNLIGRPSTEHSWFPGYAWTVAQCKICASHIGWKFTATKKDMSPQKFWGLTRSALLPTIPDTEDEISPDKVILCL
T2 sequence (P10275 whole entry L702H/T878A): as the sequence (P10275 whole entry T878A) above, with L702H counted along it
T2 sequence (Q96SW2 whole entry partner): as the sequence (Q96SW2 whole entry partner) above

The DC50 is the midpoint of the concentration-degradation curve. The low end stands for a more potent degrader, the high end for a less potent degrader. Usually Dmax stands for the greatest extent of degradation seen. Consider `N#Cc1c[nH]c2c(N3CCC(c4ccc(N5CCC(N6CCC(n7ccc8c(N9CCC(=O)NC9=O)cccc87)CC6)CC5)cc4)CC3)ccc(Cl)c12` [Example 111, 4-Chloro-7-[4-(4-{4-[4-(2,4-dioxo-1,3-diazinan-1-yl)-1H-indol-1-yl][1,4′-bipiperidin]-1′-yl}phenyl)piperidin-1-yl]-1H-indole-3-carbonitrile], for which, in assay [1], it took 4 nM to reach half-maximal degradation (DC50) and the Dmax came to 99%. Besides, in assay [2], the DC50 worked out at 5 nM and the Dmax amounted to 106%.
As to `COc1nc(N2CCN(CC3CCN(c4ccc([C@@H]5CCCN(c6ccc(Cl)c7c(C#N)c[nH]c67)C5)cc4)CC3)CC2)cc2c1C(=O)N(C1CCC(=O)NC1=O)C2` (stereo partly drawn) [Example 38, 4-Chloro-7-[(3S)-3-{4-[4-({4-[2-(2,6-dioxopiperidin-3-yl)-4-methoxy-3-oxo-2,3-dihydro-1H-pyrrolo[3,4-c]pyridin-6-yl]piperazin-1-yl}methyl)piperidin-1-yl]phenyl}piperidin-1-yl]-1H-indole-3-carbonitrile], the DC50 stood at 9 nM in assay [1] and 12 nM in assay [2]. Further, the figures for the Dmax in assay [1] and in assay [2] were 97% and 95%, respectively.
For `COc1nc(N2CCN(CC3CCN(c4ccc([C@H]5CCCN(c6ccc(Cl)c7c(C#N)c[nH]c67)C5)cc4)CC3)CC2)cc2c1C(=O)N(C1CCC(=O)NC1=O)C2` (stereo partly drawn) [Example 47, 4-Chloro-7-[(3R)-3-{4-[4-({4-[2-(2,6-dioxopiperidin-3-yl)-4-methoxy-3-oxo-2,3-dihydro-1H-pyrrolo[3,4-c]pyridin-6-yl]piperazin-1-yl}methyl)piperidin-1-yl]phenyl}piperidin-1-yl]-1H-indole-3-carbonitrile], in assay [1], the 50% degradation concentration (DC50) stood at 7 nM and the Dmax turned out to be 84%. For the same compound, in assay [2], the DC50 came to 7 nM and the Dmax came out at 100%.
Turning to `Cc1ccc(C2CCCN(c3ccc(N4CCC(CN5CCN(c6ccc7c(c6)CN(C6CCC(=O)NC6=O)C7=O)CC5)CC4)cc3)C2)c2[nH]cc(C#N)c12` (single isomer, unassigned) [Example 82, 7-[(3R*)-1-{4-[4-({4-[2-(2,6-dioxopiperidin-3-yl)-1-oxo-2,3-dihydro-1H-isoindol-5-yl]piperazin-1-yl}methyl)piperidin-1-yl]phenyl}piperidin-3-yl]-4-methyl-1H-indole-3-carbonitrile], in assay [1], half-maximal degradation (DC50) was put at 31 nM and the Dmax came out at 90%. Besides, in assay [2], the DC50 worked out at 22 nM and the Dmax is 91%.
For `N#Cc1cc(C(=O)NC2CCN(c3ccc(Cl)c4c(C#N)c[nH]c34)CC2)ccc1N1CCC(CN2CCC(n3ccc4c(N5CCC(=O)NC5=O)cccc43)CC2)CC1` [Example 165, N-[1-(4-Chloro-3-cyano-1H-indol-7-yl)piperidin-4-yl]-3-cyano-4-[4-({4-[4-(2,4-dioxo-1,3-diazinan-1-yl)-1H-indol-1-yl]piperidin-1-yl}methyl)piperidin-1-yl]benzamide], in assay [1], the DC50 amounted to 2 nM and the Dmax was 106%. Besides, in assay [2], the DC50 was 2 nM and the Dmax was determined as 115%.
For `Cc1cc2c(N3CCC(=O)NC3=O)cccc2n1C1CCN(CC2CCN(c3ccc(C4CCN(c5ccc(F)c6c(C#N)c[nH]c56)CC4)cc3)CC2)CC1` [Example 141, 7-(4-{4-[4-({4-[4-(2,4-Dioxo-1,3-diazinan-1-yl)-2-methyl-1H-indol-1-yl]piperidin-1-yl}methyl)piperidin-1-yl]phenyl}piperidin-1-yl)-4-fluoro-1H-indole-3-carbonitrile], the DC50 was 21 nM in assay [1] and 23 nM in assay [2]. For the same compound, the values for the Dmax in assay [1] and in assay [2] were 95% and 105%, respectively.
On to `N#Cc1c[nH]c2c(N3CCC(c4ccc(N5CCO[C@H](CN6CCN(c7ccc8c(c7)CN(C7CCC(=O)NC7=O)C8=O)CC6)C5)cc4)CC3)ccc(F)c12` (stereo partly drawn) [Example 126, 7-(4-{4-[(2R)-2-({4-[2-(2,6-dioxopiperidin-3-yl)-1-oxo-2,3-dihydro-1H-isoindol-5-yl]piperazin-1-yl}methyl)morpholin-4-yl]phenyl}piperidin-1-yl)-4-fluoro-1H-indole-3-carbonitrile], for which the DC50 in assay [1] is 4 nM; in assay [2], 2 nM. The figures for the Dmax in assay [1] and in assay [2] were 98% and 107%, respectively.
As to `N#Cc1c[nH]c2c(N3CCC(NC(=O)c4ccc(N5CCC(CN6CCN(c7ccc8c(c7)CN(C7CCC(=O)NC7=O)C8=O)CC6)CC5)cn4)CC3)ccc(Cl)c12` (stereo not drawn) [Example 168, N-[1-(4-Chloro-3-cyano-1H-indol-7-yl)piperidin-4-yl]-5-[4-({4-[2-(2,6-dioxopiperidin-3-yl)-1-oxo-2,3-dihydro-1H-isoindol-5-yl]piperazin-1-yl}methyl)piperidin-1-yl]pyridine-2-carboxamide], in assay [1], it took 1 nM to reach half-maximal degradation (DC50) and the Dmax amounted to 87%. Besides, in assay [2], the DC50 came to 2 nM and the Dmax is 96%.
Consider `N#Cc1c[nH]c2c(N3CCC(NC(=O)c4ccc(N5CCC(CN6CCN(c7ccc(C(=O)NC8CCC(=O)NC8=O)c(F)c7)CC6)CC5)cc4F)CC3)ccc(Cl)c12` (stereo not drawn) [Example 154], for which, in assay [1], the 50% degradation concentration (DC50) was 4 nM and the Dmax was found to be 81%. In assay [2], the 50% degradation concentration (DC50) came to 9 nM and the Dmax was found to be 79%.
For `N#Cc1c[nH]c2c(N3CCC(c4ccc(CN5CCN(CC6CCN(c7ccc8c(c7)CN(C7CCC(=O)NC7=O)C8=O)CC6)CC5)cc4)CC3)ccc(F)c12` (stereo not drawn) [Example 107, 7-[4-(4-{[4-({1-[2-(2,6-Dioxopiperidin-3-yl)-1-oxo-2,3-dihydro-1H-isoindol-5-yl]piperidin-4-yl}methyl)piperazin-1-yl]methyl}phenyl)piperidin-1-yl]-4-fluoro-1H-indole-3-carbonitrile], in that order: 6 nM, 93%, 300 nM and 107%.
Consider `N#Cc1c[nH]c2c(N3CCC(c4ccc(OCCCCN5CCC(n6ccc7c(N8CCC(=O)NC8=O)cccc76)CC5)cc4)CC3)ccc(F)c12` [Example 33, 7-{4-[4-(4-{4-[4-(2,4-Dioxo-1,3-diazinan-1-yl)-1H-indol-1-yl]piperidin-1-yl}butoxy)phenyl]piperidin-1-yl}-4-fluoro-1H-indole-3-carbonitrile], for which, in assay [1], the 50% degradation concentration (DC50) is 12 nM and the Dmax came to 97%. In assay [2], half-maximal degradation (DC50) was put at 33 nM and the Dmax came to 90%.
Consider `COc1cc(N2CCN(CC3CCN(c4ccc(C5CCN(c6ccc(Cl)c7c(C#N)c[nH]c67)CC5)cc4)CC3)CC2)cc2c1C(=O)N(C1CCC(=O)NC1=O)C2=O` (stereo not drawn) [Example 49, 4-Chloro-7-(4-{4-[4-({4-[2-(2,6-dioxopiperidin-3-yl)-7-methoxy-1,3-dioxo-2,3-dihydro-1H-isoindol-5-yl]piperazin-1-yl}methyl)piperidin-1-yl]phenyl}piperidin-1-yl)-1H-indole-3-carbonitrile], for which the DC50 in assay [1] was determined as 33 nM; in assay [2] it was 45 nM. Moreover, the Dmax in assay [1] worked out at 91%; in assay [2], 97%.
In the case of `N#Cc1c[nH]c2c(N3CCC(NC(=O)c4cnc(N5CCC(CN6CCC(n7ccc8c(N9CCC(=O)NC9=O)cccc87)CC6)CC5)cn4)CC3)ccc(Cl)c12` [Example 176, N-[1-(4-Chloro-3-cyano-1H-indol-7-yl)piperidin-4-yl]-5-[4-({4-[4-(2,4-dioxo-1,3-diazinan-1-yl)-1H-indol-1-yl]piperidin-1-yl}methyl)piperidin-1-yl]pyrazine-2-carb oxamide], in assay [1], the DC50 turned out to be 1 nM and the Dmax came to 104%. Also, in assay [2], the DC50 amounted to 3 nM and the Dmax is 102%.
In the case of `N#Cc1c[nH]c2c(N3CCC(NC(=O)c4ccc(N5CCC(CN6CCC(n7ccc8cc(N9CCC(=O)NC9=O)ccc87)CC6)CC5)cc4F)CC3)ccc(Cl)c12` [Example 153, N-[1-(4-Chloro-3-cyano-1H-indol-7-yl)piperidin-4-yl]-4-[4-({4-[5-(2,4-dioxo-1,3-diazinan-1-yl)-1H-indol-1-yl]piperidin-1-yl}methyl)piperidin-1-yl]-2-fluorobenzamide], in assay [1], it took 2 nM to reach half-maximal degradation (DC50) and the Dmax was determined as 109%. Moreover, in assay [2], it took 3 nM to reach half-maximal degradation (DC50) and the Dmax turned out to be 114%.
Take `Cc1ccc(N2CCC(c3ccc(N4CCC(CN5CCN(Cc6cccc7c6n(C)c(=O)n7C6CCC(=O)NC6=O)CC5)CC4)cc3)CC2)c2[nH]cc(C#N)c12` (stereo not drawn) [Example 69, 7-[4-(4-{4-[(4-{[1-(2,6-Dioxopiperidin-3-yl)-3-methyl-2-oxo-2,3-dihydro-1H-benzimidazol-4-yl]methyl}piperazin-1-yl)methyl]piperidin-1-yl}phenyl)piperidin-1-yl]-4-methyl-1H-indole-3-carbonitrile]: the values for the DC50 in assay [1] and in assay [2] were 9 nM and 5 nM, respectively. The Dmax stood at 92% in assay [1] and 94% in assay [2].
